Source: patent US5776945A (priority 1995, dated 1998)

Legend:
[1] = test system: Rat Middle Cerebral Artery Occlusion Model; assay: Infarction Suppression Effect in Rat Middle Cerebral Artery Occlusion (MCAO) Model; type: in vivo, rat (Wistar); conditions: i.p. 1 hour before occlusion and 1 hour after reopening, infarction volume 4 days after
Excerpt: Remarkable cerebral edema accompanied with severe cerebrovascular lesions appears in the acute stage of human cerebral infarction. […] Corresponding to development of the lesion from the infarction area to surrounding tissues, the patient's life is seriously affected besides motor and mental functional loss in the conditions of the acute stage of cerebral infarction. A middle cerebral artery occlusion (MCAO; Middle Cerebral Artery Occlusion) model in Wistar rats using emboli with threads is well known as an experimental cerebral ischemia model in which clinical potency of a medicine can be accurately evaluated conforming to clinical conditions of human cerebral infarction [J. Koizumi, Japan Journal of Stroke, 8, 1 (1986)]. This MCAO model was employed as an in vivo evaluation system for evaluating the suppression effect of the compounds of the present invention on infarction development and was conducted according to the following method:
Under 1.0% halothane anesthesia induced by ether, the cervical region of each 10-week old rat was excised at center to expose the furcation of the right carotid while paying attention not to damage the vagus nerve. Centering around the furcation of the right carotid, the common carotid and the external carotid were separated from the surrounding tissues, each of them was ligated with 6-0 floss (Eto K.K.), and another floss was wound around the origin of the internal carotid so as to ligate and fix after inserting the embolus into the carotid. The common carotid was then incised to insert the ebolus toward the internal carotid to approximately 15 to 16 mm, and the proximal terminal of a nylon thread of the embolus was ligated and fixed to the internal carotid with the above mentioned floss. Due to the above procedure, the tip of the embolus exceeded the furcation of the middle cerebral artery, entered into the anterior cerebral artery to approximately 1 to 2 mm, and the entrance of the middle cerebral artery was occluded by the embolus body (made of a resin) for 2 hours. To reopen, the embolus with a thread was pulled away so as to restart the blood flow to the middle cerebral artery. Each of the subject compounds was intraperitoneally administered 1 hour before occlusion and 1 hour after reopening. Four days after the occlusion-reopening, each rat was systematically perfused with a saline from the heart and the brain was removed. After cooling each of the obtained brains with iced-water for 5 min., 7 coronary slices, taken at 2.0 mm intervals, of the cerebrum were prepared. Each slice was stained with TTC (triphenyltetrazolium chloride) and fixed with a neutral 5% formalin buffer solution, then the infarction area of the right cerebral hemisphere was measured by an image analyzer (Olympus) so as to evaluate the infraction expressed as a volume (mm3). The resulting infraction volume was compared with that of a control group to calculate the infarction suppression ratio.

[2] = test system: Acetic Acid-Induced Writhing; assay: Analgesic Activity Test by Acetic Acid-Induced Writhing Method; type: in vivo, mouse (ddY); conditions: Mus musculus, sc; subcutaneous, 15 min. before acetic acid; writhings over 10 min.
Experimental: For this experiment, 5-week old ddY mice were employed. A 0.6% aqueous acetic acid solution was intraperitoneally administered to each of the mice at 0.1 ml/10 g body weight to evaluate the analgesic activity by employing the number of writhing reactions occurring over a 10 min.-period starting from 10 min. after administration as an index. Each of the subject compounds was subcutaneously administered to the back of each mouse 15 min. before the acetic acid administration.

Capsaicin Induced Cough = assay: animal or person; type: in vivo; conditions: Rattus norvegicus, ip; read-out: ED50, antitussive effect (dose exhibiting 50% cough suppression ratio)
[3] = test system: Cultured Neurocyte (cerebral cortexes), Glutamic Acid Toxicity; assay: Cultured-Neurocyte Protective Effect against Glutamic Acid Toxicity (LDH leakage); type: cell-based, rat (Wistar, fetal); conditions: Rattus norvegicus, Cerebral cortex neuron, 10 mM glutamic acid, 24 hours at 37° C., read-out: ED50 (50% effective dose), neurocyte protective effect against glutamic acid toxicity
Excerpt: It is known that delayed cerebral-neuronal death is induced if blood flow to the brain is transiently stopped by transient ischemia, anoxia, hypoglycemia, or trauma [T. Kirino, Brain Research, 239, 57 (1982).]. The excitatory toxicity of excitatory neurotransmitters, such as glutamic acid, which is excessively released when associated with ischemia is considered as the cause of the neurocyte damage [S. M. Rotherman and J. W. Olney, Trends in Neuroscience, 10, 299 (1987).]. A compound which protects neurocytes from the cytotoxicity of glutamic acid will be promising as a preventive and therapeutic agent for cerebral ischemic diseases, cerebral neurocyte disorder, and dementia. The following method is employed as an in vitro evaluation system of the protective effect.
Under sterilized conditions, fetuses were taken from female Wistar rats 18 to 19 day-pregnant and the brains thereof were obtained by opening their cranial portions. The brains were placed in an ice-cold L-15 medium to microscopically separate the cerebral cortexes. After being cut into small pieces, the cerebral cortexes of approximately 30 rats were suspended in a mixture of 10 ml of a 0.25% trypsin solution and 0.2 ml of a 0.01% DNase solution to be cultured at 37° C. for 30 min. Then, immediately after addition of 2 ml of serum, the resultant was centrifuged at 1,200 rpm for 2 min. to separate a sediment. To the sediment, 7 ml of a DF medium (prepared by addition of 20 nM of transferrin, 5 μg/ml of insulin, 20 nM of progesterone, 60 nM of selenite, 50 U/ml of penicillin, and 50 U/ml of streptomycin to an equivalent admixture of Dulbecco modified Eagle medium and F-12 medium) was added to prepare a cell suspension which was pipetted 20 times using a 10 ml plastic pipette followed by filtration using a nylon mesh (pore size of 43 μm) to obtain isolated cells. The resulting isolated cells were diluted to 6.0×10^5 cells/ml with the DF medium, inoculated in a polylysine-precoated culture plate having 48 wells at 500 μl per well, and cultured at 37° C. in the presence of 5% CO2 for 1 day. The medium was changed with fresh DF medium on the second day, and 10 μl of a 0.5M glutamic acid solution in distilled water is added to each of the wells (the final concentration of the glutamic acid was 10 mM), and the cells were cultured for further 24 hours at 37° C. in the presence of 5% CO2. Each of the subject compounds was dissolved in distilled water, 10% or 100% DMSO, or 10% methanol and then a 5 μl aliquot was added to each well immediately before addition of glutamic acid. The enzymatic activity of lactate dehydrogenase (LDH) which leaked into the medium from the damaged cells was measured as an index of the neurocyte damage. With respect to each of the subject compounds, LDH leakage at the respective concentrations was measured and a dose-response curve was obtained by a modified Cochran-Armitige method to obtain the 50% effective dose (ED50) of each subject compound.

Structure (SMILES) | Infarction suppression ratio ([1]; Dose 0.03 mg/kg) | Infarction suppression ratio ([1]; Dose 0.3 mg/kg) | Infarction suppression ratio ([1]; Dose 3 mg/kg) | ED50 [2] | ED50 (Capsaicin Induced Cough) | EC50 [3]
CN(C(=O)/C=C/c1cccc(C(F)(F)F)c1)[C@H]1CC[C@H]2CN(CC3CC3)CC[C@]2(c2cccc(O)c2)C1 (relative stereo) [Compound 1, Trans-2-cyclopropylmethyl-4a-(3-hydroxyphenyl)-6α-[N-methyl-(3-trifluoromethylcinnamamido)]decahydroisoquinoline] | 32% | 13% | 23% |  |  | 
CN(C(=O)/C=C/c1cccc(C(F)(F)F)c1)[C@H]1CC[C@@]2(O)CN(CC3CC3)CC[C@]2(c2cccc(O)c2)C1 (relative stereo) [Compound 12, Trans-2-cyclopropylmethyl-8a-hydroxy-4a-(3-hydroxyphenyl)-6α-[N-methyl-(3-trifluoromethylcinnamamido)]decahydroisoquinoline] |  | 64% | 48% | 1.49 mg/kg | 0.00607 mg/kg | 480 nM
CC(C)CN(C(=O)CCCCCc1ccccc1)[C@H]1CC[C@@]2(O)CN(CC3CC3)CC[C@]2(c2cccc(O)c2)C1 (relative stereo) [Compound 13, Trans-2-cyclopropylmethyl-8a-hydroxy-4a-(3-hydroxyphenyl)-6α-[N-isobutyl-(6-phenylhexanoamido)]decahydroisoquinoline] |  |  |  |  |  | 3000 nM
CC(C)CN(C(=O)Cc1ccc(Cl)c(Cl)c1)[C@H]1CC[C@@]2(O)CN(CC3CC3)CC[C@]2(c2cccc(O)c2)C1 (relative stereo) [Compound 14, Trans-2-cyclopropylmethyl-8a-hydroxy-4a-(3-hydroxyphenyl)-6α-[N-isobutyl-(3,4-dichlorophenylacetamido)]decahydroisoquinoline] |  |  |  | 5.78 mg/kg |  | 1100 nM
O=C(Cc1ccc(Cl)c(Cl)c1)N[C@@H]1CC[C@H]2CN(CC3CC3)CC[C@]2(c2cccc(O)c2)C1 (relative stereo) [Compound 21, Trans-2-cyclopropylmethyl-4a-(3-hydroxyphenyl)-6β-(3,4-dichlorophenylacetamido)decahydroisoquinoline] |  |  |  |  |  | 12600 nM
O=C(N[C@@H]1CC[C@H]2CN(CC3CC3)CC[C@]2(c2cccc(O)c2)C1)c1ccc2ccccc2c1 (relative stereo) [Compound 23, Trans-2-cyclopropylmethyl-4a-(3-hydroxyphenyl)-6β-(2-naphthoamido)decahydroisoquinoline] |  | 23% |  |  |  | 92 nM
O=C(N[C@@H]1CC[C@H]2CN(CCc3ccccc3)CC[C@]2(c2cccc(O)c2)C1)c1ccc2ccccc2c1 (relative stereo) [Compound 24, Trans-2-(2-phenetyl)-4a-(3-hydroxyphenyl)-6β-(2-naphthoamido)decahydroisoquinoline] |  |  |  | 1.7 mg/kg |  | 
CN(C(=O)/C=C/c1ccoc1)[C@H]1CC[C@H]2CN(CC3CC3)CC[C@]2(c2cccc(O)c2)C1 (relative stereo) [Compound 25] |  |  |  | 0.83 mg/kg |  | 
CN(C(=O)/C=C/c1cccc(C(F)(F)F)c1)[C@H]1CC[C@H]2CN(CC3CC3)CC[C@]2(c2cccc(O)c2)C1 [Compound 8, (4aS, 8aR)-trans-2-cyclopropylmethyl-4a-(3-hydroxyphenyl)-6α-[N-methyl-(3-trifluoromethylcinnamamido)]decahydroisoquinoline] | 26% | 43% | 32% |  | 0.00539 mg/kg | 
CN(C(=O)/C=C/c1cccc(C(F)(F)F)c1)[C@@H]1CC[C@@H]2CN(CC3CC3)CC[C@@]2(c2cccc(O)c2)C1 [Compound 9, (4aR, 8aS)-trans-2-cyclopropylmethyl-4a-(3-hydroxyphenyl)-6α-[N-methyl-(3-trifluoromethylcinnamamido)]decahydroisoquinoline] |  | 28% | 7% | 3.11 mg/kg |  | 520 nM
CN(C(=O)CCCCCc1ccccc1)[C@H]1CC[C@H]2CN(CC3CC3)CC[C@]2(c2cccc(O)c2)C1 [Compound 10, (4aS, 8aR)-trans-2-cyclopropylmethyl-4a-(3-hydroxyphenyl)-6α-[N-methyl-(6-phenylhexanoamido)]decahydroisoquinoline] | 19% | 21% | 7% | 5 mg/kg |  | 43 nM
CC(C)CN(C(=O)CCCCCc1ccccc1)[C@H]1CC[C@H]2CN(CC3CC3)CC[C@]2(c2cccc(O)c2)C1 [Compound 11, (4aS, 8aR)-trans-2-cyclopropylmethyl-4a-(3-hydroxyphenyl)-6α-[N-isobutyl-(6-phenylhexanoamido)]decahydroisoquinoline] | 5% |  | 33% |  |  | 60900 nM
